Legend:
[1] = Cytotoxicity assay in mammalian cells (MTT), macrophages, 48 h; format: cell-based; conditions: mouse, J774 A1 macrophages, pH 7.2; 50 % inhibition of macrophages growth, 48 h, MTT
Description: (§1) The antiproliferative activity was determined in promastigote forms of Leishmania amazonensis (WHOM/BR/75/JOSEFA strain) and epimastigote forms of Trypanosoma cruzi (Y strain). The promastigote forms of L. amazonensis were cultured in Warren medium (brain heart infusion, hemin, and folic acid; pH 7.4) supplemented with 10 % fetal bovine serum (FBS) at 25 °C. The epimastigote forms of T.cruzi were cultured in LIT medium (liver infusion tryptose; hemin, and folic acid; pH 7.4) supplemented with 10 % FBS at 28 °C. Cytotoxicity in mammalian cells was determined in fibroblast line (L929) and macrophages (J774 A1). Fibroblasts were cultured in DMEM medium (pH 7.2) supplemented with 10 % FBS at 37 °C in a 5 % CO2 atmosphere. Macrophages were cultured in RPMI‐1640 (pH 7.2) medium supplemented with 10 % FBS at 37 °C in a 5 % CO2 atmosphere.
(§2) Stock solutions of the compounds were prepared in DMSO and then diluted in the respective medium.
(§3) Fibroblast cell (2.5×10^5 cells.mL^−1) suspensions were prepared in DMEM medium supplemented with 10 % FBS and added to 96‐well plates. Then, the plates were incubated at 37 °C in a CO2 atmosphere for 24 h to obtain confluent cell growth. After incubation, cells were treated with different concentrations of compounds diluted in DMEM for 72 h or left untreated. Macrophage (5×10^5 cells.mL^−1) suspensions were prepared in RPMI‐1640 medium supplemented with 10 % FBS and added to 96‐well plates. Then, the plates were incubated at 37 °C in a CO2 atmosphere for 24 h to obtain confluent cell growth. After incubation, cells were treated with different concentrations of compounds diluted in RPMI‐1640 for 48 h or left untreated. After treatment, the medium was removed, and cells were incubated with MTT (2 mg.mL^−1) for 4 h. Then, DMSO was added for solubilization of the formazan and analyzed with a reading microplate reader (BIO‐TEK PowerWave XS spectrophotometer) at […].[20] The percentage of viable cells was calculated in relation to the untreated control group to determine the cytotoxic concentration in 50 % of the cells (CC50). The control groups of each experiment received the same experimental conditions as the treated groups (cell concentration used, temperature, CO2, and incubation time).

[2] = tested on: promastigote forms of Leishmania amazonensis (WHOM/BR/75/JOSEFA strain); assay: Antiproliferative assay (XTT), promastigote forms, 72 h; format: cell-based; conditions: for IC50: Leishmania amazonensis, promastigote form, 72 h, XTT, read-out: L. amazonensis IC50; for SIL-F, selectivity index (Fibroblast CC50/L. amazonensis IC50): fibroblast vs promastigote; for SIL-M, selectivity index (Macrophages CC50/L. amazonensis IC50): macrophages vs promastigote
Description: as §1, §2
(§4) Promastigote forms (1×10^6 parasites.mL^−1) were cultured in 96‐well plates in the presence and absence of different concentrations of compounds diluted in Warren medium supplemented with 10 % FBS and incubated for 72 h. The epimastigote forms (1×10^6 parasites.mL^−1) were cultured in 96‐well plates in the presence and absence of different concentrations of compounds diluted in LIT medium supplemented with 10 % FBS and incubated for 96 h. After treatment, the parasites were incubated with a solution of 2,3‐bis(2‐methoxy‐4‐nitro‐5‐sulfophenyl)‐2H‐tetrazolium‐5‐carboxanilide (XTT; 0.5 mg.mL^−1) and phenazine methanesulfonate activator (PMS; 0.06 mg.mL^−1) in PBS for 4 h. Then, the absorbance was read in a microplate reader (Bio Tek‐Power Wave XS) at 450 nm.[20] The percentage of viable parasites was calculated in relation to the control in order to determine the concentration that inhibits 50 % of the protozoa (IC50). The control groups of each experiment received the same experimental conditions as the treated groups (cell concentration used, temperature, and incubation time).

[3] = tested on: epimastigote forms of Trypanosoma cruzi (Y strain); assay: Antiproliferative assay (XTT), epimastigote forms, 96 h; format: cell-based; conditions: for IC50: Trypanosoma cruzi, epimastigote form, 96 h, XTT, read-out: T. cruzi IC50; for SIT-F, selectivity index (Fibroblast CC50/T. cruzi IC50): fibroblast vs epimastigote; for SIT-M, selectivity index (Macrophages CC50/T. cruzi IC50): macrophages vs epimastigote
Description: as §1, §2, §4

[4] = Cytotoxicity assay in mammalian cells (MTT), fibroblasts, 72 h; format: cell-based; conditions: mouse, L929 fibroblast cells, pH 7.2; 50 % inhibition of fibroblast growth, 72 h, MTT
Description: as §1, §2, §3

| SMILES | CC50 at 48 h [1] | melting point | IC50 [2] | SIL-F, selectivity index (Fibroblast CC50/L. amazonensis IC50) [2] | SIL-M, selectivity index (Macrophages CC50/L. amazonensis IC50) [2] | IC50 [3] | SIT-F, selectivity index (Fibroblast CC50/T. cruzi IC50) [3] | SIT-M, selectivity index (Macrophages CC50/T. cruzi IC50) [3] | CC50 at 72 h [4] |
| --- | --- | --- | --- | --- | --- | --- | --- | --- | --- |
| O=C(N/N=C/c1ccccn1)c1noc(-c2ccc(F)cc2)c1CNc1ccc(Cl)cc1 [5 cb] | 112 ± 6.8 µM | 202.4 to 203.9 °C | 22.6 ± 5 µM | 6.81 | 4.96 | 39.4 ± 3.1 µM | 3.91 | 2.84 | 154 ± 7.8 µM |
| O=C(N/N=C/c1ccccn1)c1noc(-c2ccc(Cl)cc2)c1CNc1ccccc1 [5 da] | 289 ± 9.5 µM | 180.5 to 182.9 °C | 69 ± 8.7 µM | 4.32 | 4.19 | 72.6 ± 3.8 µM | 4.10 | 3.98 | 298 ± 5.7 µM |
| O=C(N/N=C/c1ccccn1)c1noc(-c2ccc(Cl)cc2)c1CNc1ccc(Cl)cc1 [5 db] | 198 ± 4.6 µM | 175.7 to 176.4 °C | 87.9 ± 2 µM | 2.30 | 2.26 | 97.3 ± 3.6 µM | 2.08 | 2.04 | 203 ± 3.1 µM |
| COc1ccc(NCc2c(C(=O)N/N=C/c3ccccn3)noc2-c2ccc(Cl)cc2)cc1 [5 dc] | 98.6 ± 2.3 µM | 210.4 to 212.4 °C | 17.4 ± 2 µM | 6.17 | 5.67 | 17.9 ± 0.7 µM | 6.00 | 5.51 | 107 ± 2.2 µM |
| O=C(N/N=C/c1ccc(-c2cccs2)s1)c1noc(-c2ccc([N+](=O)[O-])cc2)c1CNc1ccccc1 [6 aa, 3‐[(2E)‐N'‐(2,2'‐bithienyl‐5‐methylene)hydrazinecarbonyl]‐4‐(phenyl)aminomethyl‐5‐(4‐nitrophenyl)isoxazole] | 210 ± 9.6 µM | 232.5 to 233.9 °C | 32.9 ± 0.9 µM | 8.74 | 6.37 | 38.4 ± 2.1 µM | 7.48 | 5.46 | 287 ± 7.3 µM |
| O=C(N/N=C/c1ccc(-c2cccs2)s1)c1noc(-c2ccccc2)c1CNc1ccc(Cl)cc1 [6 bb] | 188 ± 7.4 µM | 211.1 to 213.9 °C | 18.4 ± 1.2 µM | 12.31 | 10.22 | 19 ± 0.7 µM | 11.92 | 9.90 | 226 ± 8.7 µM |
| COc1ccc(NCc2c(C(=O)N/N=C/c3ccc(-c4cccs4)s3)noc2-c2ccccc2)cc1 [6 bc] | 170 ± 3.3 µM | 165.5 to 167 °C | 17.2 ± 3.1 µM | 11.5 | 9.91 | 18.1 ± 2.4 µM | 10.9 | 9.42 | 198 ± 5.9 µM |
| O=C(N/N=C/c1ccc(-c2cccs2)s1)c1noc(-c2ccc(Cl)cc2)c1CNc1ccccc1 [6 da] | 312 ± 4.3 µM | 208.4 to 209.9 °C | 28 ± 1.3 µM | 12.39 | 11.14 | 27.2 ± 2.5 µM | 12.76 | 11.47 | 347 ± 8.4 µM |
